IC50 data for five compounds are collected here from US20230233569A1 (Revolution Medicines, Inc., priority 2020, published 2023).

Experiment in all cases: Ras-Raf disruption / FRET / MOA assay (BRAF RBD)
Format in all cases: biochemical

Assay [1] addresses KRAS G12D (Homo sapiens, UniProt P01116+P62937, G12D). The note with it: Ras-Raf disruption, with Cyclophilin A; read-out: KRAS G12D FRET data IC50. The essentials: (§1)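 Compound-induced Ras–Cyclophilin A ternary complex disrupting BRAF RBD binding, read as IC50 from reduced TR-FRET ratio relative to DMSO. Final: Ras-GMPPNP 12.5 nM, BRAF RBD 50 nM, Cyclophilin A 25 μM, top compound 30 μM (3-fold, 10 points); 3 h at 25 °C, then 1.5 h with detection antibodies.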

The target of assay [2] is NRAS G12C (Homo sapiens, UniProt P01111+P62937, G12C). The following applies: NRAS G12C; read-out: NRAS G12C FRET data IC50. The procedure, abridged: as §1
Assay [3] concerns the target KRAS G13D (Homo sapiens, UniProt P01116+P62937, G13D). The note with it: Ras-Raf disruption, with Cyclophilin A; read-out: KRAS G13D FRET data IC50. The procedure, abridged:
as §1

The target in assay [4] is NRAS Q61R (Homo sapiens, UniProt P01111+P62937, Q61R). The note with it: NRAS Q61R; read-out: NRAS Q61R FRET data IC50. The essentials: as §1
The target of assay [5] is KRAS G13C (Homo sapiens, UniProt P01116+P62937, G13C). The following applies: Ras-Raf disruption, with Cyclophilin A; read-out: KRAS G13C FRET data IC50. The essentials:
as §1

In assay [6] the target is KRAS WT (Homo sapiens, UniProt P01116+P62937). The following applies: Ras-Raf disruption, with Cyclophilin A; read-out: KRAS WT FRET data IC50. The procedure, abridged: as §1
Assay [7] has as its target NRAS Q61K (Homo sapiens, UniProt P01111+P62937, Q61K). The note with it: NRAS Q61K; read-out: NRAS Q61K FRET data IC50. The essentials: as §1
Assay [8] deals with KRAS G12V (Homo sapiens, UniProt P01116+P62937, G12V). The following applies: Ras-Raf disruption, with Cyclophilin A; read-out: KRAS G12V FRET data IC50. The essentials: as §1
Assay [9] has as its target KRAS Q61H (Homo sapiens, UniProt P01116+P62937, Q61H). The following applies: KRAS Q61H; read-out: KRAS Q61H FRET data IC50. The essentials:
as §1

For assay [10], the target named is NRAS WT (Homo sapiens, UniProt P01111+P62937). The following applies: NRAS WT; read-out: NRAS WT FRET data IC50. The procedure, abridged: as §1
The target in assay [11] is KRAS G12S (Homo sapiens, UniProt P01116+P62937, G12S). The following applies: Ras-Raf disruption, with Cyclophilin A; read-out: KRAS G12S FRET data IC50. The procedure, abridged:
as §1

In assay [12] the target is KRAS G12C (Homo sapiens, UniProt P01116+P62937, G12C). The following applies: Ras-Raf disruption, with Cyclophilin A; read-out: KRAS G12C FRET data IC50. The essentials:
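TR-FRET read-out after 1.5 h with anti-His Eu-W1024 (10 nM) and anti-GST APC (50 nM), following 3 h at 25 °C of compound (top 30 μM, 3-fold, 10 points) with 25 μM Cyclophilin A, 12.5 nM GMPPNP-loaded K-Ras G12C and 50 nM BRAF RBD; IC50 reported.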

As a reminder, the IC50 is the concentration that gives 50% inhibition.

The structures appear in SMILES notation. Some results are limits rather than exact numbers.

Chain of NRAS WT (P01111 whole entry): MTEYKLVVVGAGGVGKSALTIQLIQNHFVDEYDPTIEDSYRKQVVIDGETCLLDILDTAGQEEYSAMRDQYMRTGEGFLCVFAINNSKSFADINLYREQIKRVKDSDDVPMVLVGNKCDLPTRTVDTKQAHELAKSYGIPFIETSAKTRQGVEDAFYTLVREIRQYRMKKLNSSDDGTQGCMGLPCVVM
Chain of NRAS WT (P62937 whole entry): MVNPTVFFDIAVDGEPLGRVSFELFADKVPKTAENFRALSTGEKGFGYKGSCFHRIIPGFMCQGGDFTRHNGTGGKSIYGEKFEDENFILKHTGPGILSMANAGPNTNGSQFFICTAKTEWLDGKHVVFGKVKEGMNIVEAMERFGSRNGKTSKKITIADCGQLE
Chain of KRAS WT (P01116 1-169 isoform P01116-2 limits assumed): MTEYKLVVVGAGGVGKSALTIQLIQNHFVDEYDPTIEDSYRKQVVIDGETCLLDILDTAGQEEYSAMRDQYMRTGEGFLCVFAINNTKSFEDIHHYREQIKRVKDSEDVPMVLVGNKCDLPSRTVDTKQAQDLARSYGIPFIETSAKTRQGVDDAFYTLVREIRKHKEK
Chain of KRAS WT (P62937 whole entry): as the sequence (P62937 whole entry) above
Chain of NRAS Q61R (P01111 whole entry Q61R): as the sequence (P01111 whole entry) above, with Q61R counted along it
Chain of NRAS Q61R (P62937 whole entry): as the sequence (P62937 whole entry) above
Chain of KRAS G12C (P01116 1-169 isoform P01116-2 G12C limits assumed): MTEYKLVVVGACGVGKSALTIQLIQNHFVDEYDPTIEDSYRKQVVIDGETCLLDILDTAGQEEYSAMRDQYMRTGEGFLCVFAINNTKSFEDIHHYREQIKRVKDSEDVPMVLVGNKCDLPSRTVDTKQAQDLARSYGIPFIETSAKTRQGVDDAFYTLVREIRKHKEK
Chain of KRAS G12C (P62937 whole entry): as the sequence (P62937 whole entry) above
Chain of KRAS Q61H (P01116 1-169 isoform P01116-2 Q61H limits assumed): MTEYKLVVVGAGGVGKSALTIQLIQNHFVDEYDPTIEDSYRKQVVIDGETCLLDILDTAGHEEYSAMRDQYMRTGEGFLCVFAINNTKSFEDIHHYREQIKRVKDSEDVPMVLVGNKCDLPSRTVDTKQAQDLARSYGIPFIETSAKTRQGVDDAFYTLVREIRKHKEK
Chain of KRAS Q61H (P62937 whole entry): as the sequence (P62937 whole entry) above
Chain of NRAS G12C (P01111 whole entry G12C): as the sequence (P01111 whole entry) above, with G12C counted along it
Chain of NRAS G12C (P62937 whole entry): as the sequence (P62937 whole entry) above
Chain of KRAS G12V (P01116 1-169 isoform P01116-2 G12V limits assumed): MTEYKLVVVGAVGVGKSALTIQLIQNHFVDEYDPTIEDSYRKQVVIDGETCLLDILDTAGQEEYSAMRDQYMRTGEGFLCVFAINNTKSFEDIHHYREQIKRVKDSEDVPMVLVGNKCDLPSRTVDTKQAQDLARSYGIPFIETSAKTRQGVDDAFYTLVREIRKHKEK
Chain of KRAS G12V (P62937 whole entry): as the sequence (P62937 whole entry) above
Chain of KRAS G12D (P01116 1-169 isoform P01116-2 G12D limits assumed): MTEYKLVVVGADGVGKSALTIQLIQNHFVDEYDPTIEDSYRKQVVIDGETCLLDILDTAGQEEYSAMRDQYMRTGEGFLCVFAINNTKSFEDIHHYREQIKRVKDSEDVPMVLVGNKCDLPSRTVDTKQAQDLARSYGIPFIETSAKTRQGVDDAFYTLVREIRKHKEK
Chain of KRAS G12D (P62937 whole entry): as the sequence (P62937 whole entry) above
Chain of NRAS Q61K (P01111 whole entry Q61K): as the sequence (P01111 whole entry) above, with Q61K counted along it
Chain of NRAS Q61K (P62937 whole entry): as the sequence (P62937 whole entry) above
Chain of KRAS G13C (P01116 1-169 isoform P01116-2 G13C limits assumed): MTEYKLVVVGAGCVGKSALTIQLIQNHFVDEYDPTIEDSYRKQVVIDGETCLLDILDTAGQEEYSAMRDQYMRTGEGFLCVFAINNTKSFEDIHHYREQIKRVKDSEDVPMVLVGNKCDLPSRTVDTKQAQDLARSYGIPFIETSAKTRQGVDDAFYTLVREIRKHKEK
Chain of KRAS G13C (P62937 whole entry): as the sequence (P62937 whole entry) above
Chain of KRAS G12S (P01116 1-169 isoform P01116-2 G12S limits assumed): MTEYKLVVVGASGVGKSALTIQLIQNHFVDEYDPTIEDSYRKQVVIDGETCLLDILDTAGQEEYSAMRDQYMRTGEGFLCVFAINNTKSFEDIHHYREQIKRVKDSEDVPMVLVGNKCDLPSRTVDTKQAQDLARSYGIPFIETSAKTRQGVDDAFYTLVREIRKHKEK
Chain of KRAS G12S (P62937 whole entry): as the sequence (P62937 whole entry) above
Chain of KRAS G13D (P01116 1-169 isoform P01116-2 G13D limits assumed): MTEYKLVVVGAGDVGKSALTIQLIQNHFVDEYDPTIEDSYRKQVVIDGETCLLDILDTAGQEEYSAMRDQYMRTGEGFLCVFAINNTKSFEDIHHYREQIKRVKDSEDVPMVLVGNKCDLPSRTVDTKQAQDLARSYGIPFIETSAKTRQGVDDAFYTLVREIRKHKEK
Chain of KRAS G13D (P62937 whole entry): as the sequence (P62937 whole entry) above

Turning to `CCn1c(-c2cccnc2[C@H](C)OC)c2c3cc(ccc31)-c1cc(O)cc(c1)C[C@H](NC(=O)[C@H](C(C)C)N(C)C(=O)[C@H]1C[C@H]3CC[C@@H](C1)N3C(=O)[C@H]1CN1)C(=O)N1CCC[C@H](N1)C(=O)OCC(C)(C)C2` (atropisomer, axis not shown) [Example 245], the IC50 in [1] was 0.1 to 1 µM; in assay [2], 0.01 to 0.1 µM; in [3], 0.1 to 1 µM; in [4], 0.1 to 1 µM; in assay [5], 0.01 to 0.1 µM; in [6], 0.01 to 0.1 µM. In addition, the IC50 in assay [7] is 0.1 to 1 µM; in assay [8], 0.1 to 1 µM; in assay [9] it was 0.01 to 0.1 µM; in assay [10] it was 0.01 to 0.1 µM; in assay [11], 0.1 to 1 µM; in [12], 0.01 to 0.1 µM.

Consider `CCn1c(-c2cccnc2[C@H](C)OC)c2c3cc(ccc31)-c1cc(O)cc(c1)C[C@H](NC(=O)[C@H](C(C)C)N(C)C(=O)[C@H]1C[C@H]3CC[C@@H](C1)N3C(=O)[C@@H]1CN1)C(=O)N1CCC[C@H](N1)C(=O)OCC(C)(C)C2` (atropisomer, axis not shown) [Example 246], for which the IC50 in assay [1] is 1 to 10 µM; in [2], 0.01 to 0.1 µM; in [3] it was 0.1 to 1 µM; in assay [4], 0.1 to 1 µM; in assay [5] it was 0.01 to 0.1 µM; in [6], 0.01 to 0.1 µM. Also, the IC50 is 0.01 to 0.1 µM in assay [7]; 0.1 to 1 µM in assay [8]; below 0.01 µM in assay [9]; 0.01 to 0.1 µM in assay [10]; 0.1 to 1 µM in [11]; 0.01 to 0.1 µM in assay [12].

On to `CCn1c(-c2cccnc2[C@H](C)OC)c2c3cc(ccc31)-c1cc(O)cc(c1)C[C@H](NC(=O)[C@H](C(C)C)N(C)C(=O)[C@H]1CCCCN(C(=O)[C@H]3CN3)C1)C(=O)N1CCC[C@H](N1)C(=O)OCC(C)(C)C2` (atropisomer, axis not shown) [Example 247], for which the 50% inhibitory concentration (IC50) in assay [1] lay within 1 to 10 µM; in [2] it was 0.01 to 0.1 µM; in [3] it was 0.1 to 1 µM; in assay [4], 1 to 10 µM; in assay [5], 0.1 to 1 µM; in [6] it was 0.1 to 1 µM. In addition, the IC50 in assay [7] was in the range of 1 to 10 µM; in assay [8] it was 0.1 to 1 µM; in assay [9] it was 0.1 to 1 µM; in assay [10], 0.1 to 1 µM; in assay [11], 0.1 to 1 µM; in [12], 0.01 to 0.1 µM.

As to `CCn1c(-c2cccnc2[C@H](C)OC)c2c3cc(ccc31)-c1cc(O)cc(c1)C[C@H](NC(=O)[C@H](C(C)C)N(C)C(=O)N1C[C@@H]3[C@H]1CCN3C(=O)[C@H]1CN1)C(=O)N1CCC[C@H](N1)C(=O)OCC(C)(C)C2` (atropisomer, axis not shown) [Example 250], the IC50 in assay [1] was 1 to 10 µM; in [2] it was 0.1 to 1 µM; in assay [3] it was 1 to 10 µM; in [4], 1 to 10 µM; in assay [5], 0.1 to 1 µM; in [6], 0.1 to 1 µM. The IC50 lay in the range of 1 to 10 µM in assay [7]; 0.1 to 1 µM in [8]; 0.1 to 1 µM in assay [9]; 0.1 to 1 µM in assay [10]; 0.1 to 1 µM in assay [11]; 0.01 to 0.1 µM in [12].

With `CCn1c(-c2cccnc2[C@H](C)OC)c2c3cc(ccc31)-c1cc(O)cc(c1)C[C@H](NC(=O)[C@H](C(C)C)N(C)C(=O)N1C[C@@H]3[C@H]1CCN3C(=O)[C@@H]1CN1)C(=O)N1CCC[C@H](N1)C(=O)OCC(C)(C)C2` (atropisomer, axis not shown) [Example 251], the IC50 in assay [1] lay within 1 to 10 µM; in assay [2] it was 0.01 to 0.1 µM; in assay [3], 1 to 10 µM; in assay [4], 1 to 10 µM; in assay [5], 0.01 to 0.1 µM; in assay [6], 0.1 to 1 µM. The IC50 in assay [7] was 1 to 10 µM; in assay [8] it was 0.1 to 1 µM; in assay [9] it was 0.1 to 1 µM; in assay [10] it was 0.1 to 1 µM; in assay [11] it was 0.1 to 1 µM; in assay [12], 0.01 to 0.1 µM.
